This note sets out measurements from patent US11780826B2 (Amgen Inc., priority 2017, dated 2023).

This assay deals with Bovine cardiac myofibrils. As to the kind of experiment: In vitro model of dose-dependent myofibril ATPase modulation (AC1.4, pyruvate kinase/lactate dehydrogenase-coupled ATPase assay at pCa25). The format is biochemical. Particulars: concentration at which ATPase activity was 1.4-fold higher than the bottom of the dose curve, mean of a minimum of two independent tests. The method in brief: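 Compound dilutions were premixed with myofibrils, coupling enzymes, EGTA and CaCl2, then the reaction was started with an equal volume carrying ATP (final 1 mM), NADH and PEP. ATP turnover was followed at 340 nm, and dose responses were fit to a four-parameter equation.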
The molecule `O=C(NCc1ccc(C(F)(F)F)cc1)[C@H]1CCCN1C(=O)[C@H]1CCCN(S(=O)(=O)N2CC[C@H](C(F)(F)F)C2)C1` [Example 384, N-(4-(trifluoromethyl)benzyl)-1-(((3S)-1-(((3S)-3-(trifluoromethyl)-1-pyrrolidinyl)sulfonyl)-3-piperidinyl)carbonyl)-D-prolinamide] came in with an AC1.4 of 1.295 µM.

`NS(=O)(=O)c1ccc(F)c(C(=O)N2CCC[C@@H]2C(=O)N[C@@H](c2ccc(C(F)(F)F)cc2F)C2CC2)c1` [Example 566, N-((R)-cyclopropyl(2-fluoro-4-(trifluoromethyl)phenyl)methyl)-1-(2-fluoro-5-sulfamoylbenzoyl)-D-prolinamide]: the AC1.4 worked out at 3.0845 µM.

`O=C(N[C@@H](c1ccc(C(F)(F)F)cc1F)C1CC1)[C@H]1C[C@H]2C[C@H]2N1C(=O)c1ccccc1NC(=O)C(F)(F)F` [Example 553, (1R,3R,5R)-N-((R)-cyclopropyl(2-fluoro-4-(trifluoromethyl)phenyl)methyl)-2-(2-(2,2,2-trifluoroacetamido)benzoyl)-2-azabicyclo[3.1.0]hexane-3-carboxamide] registered an AC1.4 of 2.873 µM.

In turn, `O=C(NC1CN(S(=O)(=O)N2CCC[C@H](C(=O)N3CCC[C@@H]3C(=O)NCc3ccc(C(F)(F)F)cc3)C2)C1)C1CCC1` [Example 754, 1-(((3S)-1-((3-((cyclobutylcarbonyl)amino)-1-azetidinyl)sulfonyl)-3-piperidinyl)carbonyl)-N-(4-(trifluoromethyl)benzyl)-D-prolinamide] showed an AC1.4 of 7.453 µM.

`N#CC1CN(S(=O)(=O)N2CCC[C@H](C(=O)N3CCC[C@@H]3C(=O)N[C@H](c3ccc(C(F)(F)F)cc3)C3CC3)C2)C1` [Example 107, 1-(((3S)-1-((3-cyano-1-azetidinyl)sulfonyl)-3-piperidinyl)carbonyl)-N-((S)-cyclopropyl(4-(trifluoromethyl)phenyl)methyl)-D-prolinamide] displayed an AC1.4 of 0.1642 µM.

As for `NS(=O)(=O)c1cccc(C(=O)N2C[C@H]3C[C@H]3[C@@H]2C(=O)N[C@@H](c2cc(F)c(Cl)cc2F)C2CC2)c1` [Example 340, (1R,2R,5S)-N-((R)-(4-chloro-2,5-difluorophenyl)(cyclopropyl)methyl)-3-(3-sulfamoylbenzoyl)-3-azabicyclo[3.1.0]hexane-2-carboxamide], the AC1.4 came to 0.8898 µM.

`Cc1c(Cl)cccc1CNC(=O)[C@H]1CCCN1C(=O)[C@H]1CCCN(S(=O)(=O)N2CC(C#N)C2)C1` [Example 152, N-(3-chloro-2-methylbenzyl)-1-(((3S)-1-((3-cyano-1-azetidinyl)sulfonyl)-3-piperidinyl)carbonyl)-D-prolinamide] showed an AC1.4 of 0.2624 µM.

Take `O=C(N[C@@H](c1ccc(C(F)(F)F)cc1F)C1CC1)[C@H]1CCCN1C(=O)c1cccc(C2(F)CN(S(=O)(=O)C3CC3)C2)c1` [Example 247, N-((R)-cyclopropyl(2-fluoro-4-(trifluoromethyl)phenyl)methyl)-1-(3-(1-(cyclopropylsulfonyl)-3-fluoro-3-azetidinyl)benzoyl)-D-prolinamide]: the AC1.4 was determined as 0.5868 µM.

On to `CC1(O)CN(S(=O)(=O)N2CCC[C@H](C(=O)N3CCC[C@@H]3C(=O)NCc3ccc(Cl)c(F)c3)C2)C1` [Example 663, N-(4-chloro-3-fluorobenzyl)-1-(((3S)-1-((3-hydroxy-3-methyl-1-azetidinyl)sulfonyl)-3-piperidinyl)carbonyl)-D-prolinamide], for which the AC1.4 is 4.6285 µM.

Molecule `CCNc1ccc(S(C)(=O)=O)cc1C(=O)N1[C@@H](C(=O)N[C@@H](c2ccc(C(F)(F)F)cc2F)C2CC2)C[C@H]2C[C@H]21` [Example 50, (1R,3R,5R)-N-((R)-cyclopropyl(2-fluoro-4-(trifluoromethyl)phenyl)methyl)-2-(2-(ethylamino)-5-(methylsulfonyl)benzoyl)-2-azabicyclo[3.1.0]hexane-3-carboxamide] had an AC1.4 of 0.0546 µM.

The molecule `CC(=O)NC1CN(S(=O)(=O)N2CCC[C@H](C(=O)N3CCC[C@@H]3C(=O)NCc3ccc(C(F)(F)F)cc3)C2)C1` [Example 782, 1-(((3S)-1-((3-(acetylamino)-1-azetidinyl)sulfonyl)-3-piperidinyl)carbonyl)-N-(4-(trifluoromethyl)benzyl)-D-prolinamide] had an AC1.4 of 8.6395 µM.

The molecule `NS(=O)(=O)c1cccc(C(=O)N2CCC[C@@H]2C(=O)N[C@@H](c2cc(F)c(Cl)cc2F)C2CC2)c1` [Example 224, N-((R)-(4-chloro-2,5-difluorophenyl)(cyclopropyl)methyl)-1-(3-sulfamoylbenzoyl)-D-prolinamide] came in with an AC1.4 of 0.485 µM.

In turn, `O=C(NCc1ccc(C(F)(F)F)cc1)[C@H]1CCCN1C(=O)c1cccc(S(=O)(=O)N2CC[C@@H](O)C2)c1` [Example 560, 1-((3-(((3R)-3-hydroxy-1-pyrrolidinyl)sulfonyl)phenyl)carbonyl)-N-(4-(trifluoromethyl)benzyl)-D-prolinamide,1-((3-(((3S)-3-hydroxy-1-pyrrolidinyl)sulfonyl)phenyl)carbonyl)-N-(4-(trifluoromethyl)benzyl)-D-prolinamide] came in with an AC1.4 of 2.9638 µM.

Molecule `N#CC1CN(S(=O)(=O)N2CCC[C@H](C(=O)N3CCC[C@@H]3C(=O)NCc3ccc(Cl)cc3)C2)C1` [Example 164, N-(4-chlorobenzyl)-1-(((3S)-1-((3-cyano-1-azetidinyl)sulfonyl)-3-piperidinyl)carbonyl)-D-prolinamide] showed an AC1.4 of 0.2785 µM.

Molecule `O=C(N[C@@H](c1ccc(C(F)(F)F)cc1F)C1CC1)[C@H]1CCCN1C(=O)c1cccc(C(O)C(F)(F)F)c1` (stereo partly drawn) [Example 556, (2R)-N-((R)-cyclopropyl(2-fluoro-4-(trifluoromethyl)phenyl)methyl)-1-(3-(2,2,2-trifluoro-1-hydroxyethyl)benzoyl)pyrrolidine-2-carboxamide] yielded an AC1.4 of 2.9075 µM.

Turning to `CS(=O)(=O)c1cccc(C(=O)N2CCC[C@@H]2C(=O)N[C@@H]2CCc3cc(C(F)(F)F)ccc32)c1` [Example 742, 1-(3-(methylsulfonyl)benzoyl)-N-((1R)-5-(trifluoromethyl)-2,3-dihydro-1H-inden-1-yl)-D-prolinamide], the AC1.4 came to 7.2 µM.

`N#CC1CN(S(=O)(=O)N2CC[C@H](C(=O)N3CCC[C@@H]3C(=O)NCc3ccc(C(F)(F)F)cc3F)C2)C1` [Example 470, 1-(((3S)-1-((3-cyano-1-azetidinyl)sulfonyl)-3-pyrrolidinyl)carbonyl)-N-(2-fluoro-4-(trifluoromethyl)benzyl)-D-prolinamide]: the AC1.4 is 1.9915 µM.

For `N#CC1CN(S(=O)(=O)c2cccc(C(=O)N3CCC[C@@H]3C(=O)N[C@@H](CO)c3cccc(C(F)(F)F)c3)c2)C1` [Example 386, 1-(3-((3-cyano-1-azetidinyl)sulfonyl)benzoyl)-N-((1R)-2-hydroxy-1-(3-(trifluoromethyl)phenyl)ethyl)-D-prolinamide], the AC1.4 turned out to be 1.3335 µM.

`N#CC1CN(S(=O)(=O)N2CCCC(F)(C(=O)N3CCC[C@@H]3C(=O)NCc3ccc(C(F)(F)F)cc3)C2)C1` (stereo partly drawn) [Example 183, 1-((-1-((3-cyano-1-azetidinyl)sulfonyl)-3-fluoro-3-piperidinyl)carbonyl)-N-(4-(trifluoromethyl)benzyl)-D-prolinamide] came in with an AC1.4 of 0.3361 µM.

`N#CC1CN(S(=O)(=O)N2CCC[C@H](C(=O)N3CCC[C@@H]3C(=O)N[C@@H](CO)c3ccc(Cl)cc3)C2)C1` [Example 733, N-((1R)-1-(4-chlorophenyl)-2-hydroxyethyl)-1-(((3S)-1-((3-cyano-1-azetidinyl)sulfonyl)-3-piperidinyl)carbonyl)-D-prolinamide]: the AC1.4 is 6.8025 µM.

On to `O=C(N[C@@H](c1cc(F)c(Cl)cc1F)C1COC1)[C@H]1C[C@@H](O)CN1C(=O)c1ccnc(C(F)(F)F)c1` [Example 399, (4R)-N-((R)-(4-chloro-2,5-difluorophenyl)(3-oxetanyl)methyl)-4-hydroxy-1-((2-(trifluoromethyl)-4-pyridinyl)carbonyl)-D-prolinamide], for which the AC1.4 was found to be 1.4045 µM.

Take `O=C(N[C@@H](c1ccc(C(F)(F)F)c(F)c1)C1CC1)[C@H]1C[C@H]2C[C@H]2N1C(=O)c1cncc(S(=O)(=O)C2CC2)c1` [Example 491, (1R,3R,5R)-N-((R)-cyclopropyl(3-fluoro-4-(trifluoromethyl)phenyl)methyl)-2-((5-(cyclopropylsulfonyl)-3-pyridinyl)carbonyl)-2-azabicyclo[3.1.0]hexane-3-carboxamide]: the AC1.4 turned out to be 2.181 µM.

`N#CC1CN(S(=O)(=O)N2CCC[C@H](C(=O)N3CCC[C@@H]3C(=O)NCc3ccc(C(F)(F)F)c(Cl)c3)C2)C1` [Example 38, N-(3-chloro-4-(trifluoromethyl)benzyl)-1-(((3S)-1-((3-cyano-1-azetidinyl)sulfonyl)-3-piperidinyl)carbonyl)-D-prolinamide] showed an AC1.4 of 0.0394 µM.

`CC1(O)CN(S(=O)(=O)N2CCC[C@H](C(=O)N3CCC[C@@H]3C(=O)NCc3ccc(C(F)(F)F)cc3F)C2)C1` [Example 669, N-(2-fluoro-4-(trifluoromethyl)benzyl)-1-(((3S)-1-((3-hydroxy-3-methyl-1-azetidinyl)sulfonyl)-3-piperidinyl)carbonyl)-D-prolinamide] gave an AC1.4 of 4.727 µM.

With `CS(=O)(=O)c1cccc(C(=O)N2CCC[C@@H]2C(=O)N[C@@H](c2cc(F)c(C(F)(F)F)cc2F)[C@H]2C[C@H](O)C2)c1` [Example 828, (R)-N-((R)-(2,5-difluoro-4-(trifluoromethyl)phenyl)((lr,3R)-3-hydroxycyclobutyl)methyl)-1-(3-(methylsulfonyl)benzoyl)pyrrolidine-2-carboxamide], the AC1.4 came out at 0.1639 µM.
